How the values were obtained:
[1] = target: T1, MMP9 mediated gelatinase activity (Rattus norvegicus, UniProt P50282); experiment: In situ zymography of gelatinase activity in livers of SCW-induced rats dosed with compound; assay type: in vivo; conditions: for Intensity (RLU × 10^6), Mean / Intensity (RLU × 10^6), Rat 1 / Intensity (RLU × 10^6), Rat 2 / Intensity (RLU × 10^6), Rat 3: Day 25-28, liver
T1 construct: from tissue; host or cells: frozen liver sections, female Lewis rats
Source text: In situ zymography provides an alternative approach to assess active MMP9 in tissues (Frederiks). Tissue sections are overlain with fluorescene-conjugated gelatin wherein the conjugation is sufficiently dense to cause the fluorescene to be dye-quenched (DQ). Proteolytic degradation of the DQ-gelatin releases the fluorescene from the quenching effect giving rise to bright green fluorescence at the site of degradation. Because in situ zymography requires the use of frozen sections, calcified tissues are problematic. However, an additional feature of the SCW arthritis model is the development of hepatic granulomatous disease (J Immunol; 1986; 137:2199-2209), and MMP9 reportedly plays a role in macrophage recruitment in the granulomas response to mycobacteria (Infect Immun; 2006; 74:6135-6144). Consequently, granulomatous livers from SCW-treated rats were assessed for active MMP9 by in situ zymography.
As described above, Female Lewis (LEW/N) rats, 5-6 weeks of age (80-100 g) were injected (i.p.) with saline or SCW PG-PS. On day 28, when the granulomatous response was well established, animals were sacrificed and livers were frozen in OCT cryo-sectioning medium and […] sections were cut on a Cryome HM 500 M cryotome and mounted on glass microscope slides. Sections were air dried briefly. MMP9 was confirmed as the source of the gelatinase activity in the liver by treating liver sections with monoclonal antibodies directed against the active site of the two major gelatinases MMP9 and MMP2. Liver sections overlain with 50 μL of 100 μg/mL neutralizing mouse monoclonal antibodies directed against MMP9 (Calbiochem, clone 6-6B), or MMP2 (Millipore, clone CA-4001), or with PBS for 1 hr at room temperature. Tissues were rinsed once with PBS, blotted, and briefly air dried and then overlain with DQ-gelatin (Invitrogen) dissolved to 1 mg/mL in deionized water and then diluted 1:10 in 1% wt/vol low gelling point agarose type VII (Sigma) in PBS. The sections were covered with coverslips, incubated in the dark at room temperature for 20 min, and imaged on an Olympus IX80 inverted microscope fitted with fluorescence optics, using SlideBook™ imaging software (Intelligent Imaging Innovations, Inc., Philadelphia, Pa.; version 5.0). Fluorescence intensity was determined (Table 8). When compared to a saline-treated rat, gelatinase activity was abundantly expressed in granulomatous liver sections obtained from a rat with SCW arthritis.
Next, liver in situ zymography was used to assess the relative presence of active MMP9 in rats dosed with vehicle vs. Compound-α. Female Lewis (LEW/N) rats, 5-6 weeks of age (80-100 g) were injected (i.p.) with saline or SCW PG-PS. Commencing on day 25, randomized groups of rats (n=3 rats/group) received vehicle or 20 or 50 mg/kg Compound-α BID by oral gavage. Vehicle consisted of an aqueous mixture containing 2% (v:v) N-methylpyrrolidone, 5% (v:v) glycerine, and 20% (w:v) captisol. Treatment continued daily through the morning of day 28. Four hrs after the AM dose on day 28, rats were sacrificed and livers assessed for active MMP9 by in situ zymography (Table 9). Gelatinase activity was increased markedly in SCW-induced rats, but activity was reduced by approximately 80% in animals treated with 50 mg/kg Compound-α.

[2] = test system: female Lewis rats with SCW-induced arthritis; experiment: Efficacy in rats with SCW-induced arthritis (ankle thickness, clinical scores); assay type: in vivo, rat; conditions: 5, 20, 50 mg/kg BID oral, Day 18-26
Source text: A polyarthritis can be induced in female Lewis rats following i.p. administration of streptococcal cell wall (SCW) […] (PG-PS) (J Exp Med 1977; 146:1585-1602). The model has an acute phase (days 3-7) that is complement and neutrophil-dependent and that resolves. A chronic erosive phase begins at about day ten and is dependent on the development of specific T cell immunity to the PG-GS, which resists digestion and remains present in synovial macrophages for months. Like rheumatoid arthritis, SCW-induced arthritis is reduced by TNF inhibitors, and the dependence of SCW-induced arthritis on macrophages (Rheumatology; 2001; 40:978-987) and the strong association of rheumatoid arthritis severity with synovial-tissue macrophage counts (Ann Rheum Dis; 2005; 64:834-838) makes SCW-arthritis an attractive model for testing potential therapeutic agents. SCW PG-PS 10S (Beckton Dickinson Cat#210866) suspended in saline was vortexed for 30 seconds and sonicated for 3 min with a probe type sonicator prior to injection. […]
To induce arthritis, Female Lewis (LEW/N) rats, 5-6 weeks of age (80-100 g) were injected (i.p.) with SCW PG-PS as described above. […] Each ankle was measured 3 times and averaged, and treatment groups were randomized based on ankle thickness (Table 6). […]

T1 sequence (P50282 108-708): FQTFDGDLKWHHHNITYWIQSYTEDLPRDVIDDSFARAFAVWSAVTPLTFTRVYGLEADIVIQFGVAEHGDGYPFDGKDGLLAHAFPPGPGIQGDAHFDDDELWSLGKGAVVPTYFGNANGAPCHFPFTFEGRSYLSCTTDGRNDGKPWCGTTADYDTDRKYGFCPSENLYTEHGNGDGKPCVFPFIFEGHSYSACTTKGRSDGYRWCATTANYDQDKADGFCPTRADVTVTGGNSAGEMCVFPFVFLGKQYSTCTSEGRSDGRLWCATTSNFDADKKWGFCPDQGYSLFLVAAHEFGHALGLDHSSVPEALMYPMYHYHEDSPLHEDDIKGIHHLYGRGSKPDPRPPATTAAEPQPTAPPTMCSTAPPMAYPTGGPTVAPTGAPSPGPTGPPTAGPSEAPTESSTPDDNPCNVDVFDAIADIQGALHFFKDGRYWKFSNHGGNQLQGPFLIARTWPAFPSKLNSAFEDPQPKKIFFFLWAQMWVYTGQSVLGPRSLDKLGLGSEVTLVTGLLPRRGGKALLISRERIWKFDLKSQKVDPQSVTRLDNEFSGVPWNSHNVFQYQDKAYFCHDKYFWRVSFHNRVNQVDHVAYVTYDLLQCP

Cc1nc(C)c(-c2csc(Nc3cc(S(N)(=O)=O)ccc3OC(C)C)n2)s1 [Compound-α, 3-(2′,4′-Dimethyl-[4,5′]bithiazolyl-2-ylamino)-4-isopropoxy-benzenesulfonamide.HBr]
Intensity (RLU × 10^6), Mean ([1]; 20 mg/kg BID oral): 55.2 RLU × 10^6 | Intensity (RLU × 10^6), Rat 1 ([1]; 20 mg/kg BID oral): 43.0 RLU × 10^6 | Intensity (RLU × 10^6), Rat 2 ([1]; 20 mg/kg BID oral): 69.0 RLU × 10^6 | Intensity (RLU × 10^6), Rat 3 ([1]; 20 mg/kg BID oral): 53.7 RLU × 10^6 | Reduction of liver gelatinase activity ([1]; 50 mg/kg BID oral, Day 25-28): approximately 80% | Intensity (RLU × 10^6), Mean ([1]; 50 mg/kg BID oral): 11.1 RLU × 10^6 | Intensity (RLU × 10^6), Rat 1 ([1]; 50 mg/kg BID oral): 3.2 RLU × 10^6 | Intensity (RLU × 10^6), Rat 2 ([1]; 50 mg/kg BID oral): 25.6 RLU × 10^6 | Intensity (RLU × 10^6), Rat 3 ([1]; 50 mg/kg BID oral): 4.5 RLU × 10^6 | Ankle thickness measurements, effect of treatment [2]: dose-dependent decrease in ankle thickness measurements | Clinical score measurements, effect of treatment [2]: dose dependent decrease in clinical score measurements
